Read-outs that look alike come from different tables or passages of the source.
Key:
rat prostate = experiment: Systemic antiandrogenic activity in immature male rats (castrated, DHT implant), prostate weight; settings: po, 168 h, 0.5 mg/animal per os once daily 7 days, % efficacy relative to inhibition by flutamide, read-out: RAT (in vivo) (systemic) Prostate Inh. % inh. (0.5 mg, per os)
Procedure: Column 5 represents the % of antiandrogenic efficacy in rat prostate, relatively to the percentage of inhibition of flutamide calculated by the formula:
(§1) % efficacy versus Flu=100×% inhib (compound)/% inhib (Flu).
(§2) Where the percentage of inhibition (% inhib) is calculated by the following formula:
% lnhib=100−[W (compound)−W (control)/W (DHT)−W (control)]×100.
W is the weight of the prostate.
(§3) C Systemic antiandrogenic activity (immature male rats)
(§4) 1. Animals Immature male rats (Crl:CD(SD)Br) 22 to 24-day old were obtained from Charles-River, Inc. (St-Constant, Quebec, Canada) and housed up to 5 per cage in plastic bins in a temperature (23±1° C.)—and light (12 h light/day, lights on at 7h15)—controlled environment. The rats were fed rodent chow and tap water ad libitum. The day following their arrival, the animals were orchidectornized (CX) under Isoflurane anesthesia via scrotal route and randomly assigned to groups of 5 animals. One silastic implant of dihydrotestosterone (DHT; length of implant: 1 cm) was inserted subcutaneously in the dorsal area of animals at the time of orchidectomy. One group of 5 animals was CX only as control (no DHT implant inserted).
(§5) 2. Treatments To evaluate the antiandrogenic activity, tested compounds were administered orally by gavage once daily at a dose of 0.5 mg/animal for 7 days (SD 1 to 7). Compounds were solubilized (when possible) in dimethylsulfoxide (DMS, 10% final concentration) and administered as suspension in 0.4% methylcellulose. Rats in CX control and CX+DHT control groups received the vehicle alone during the 7-day period. One group of animals received the antiandrogen Flutamide as reference. The animals were killed by cervical dislocation under isoflurane anesthesia on the 8th morning following castration. The ventral prostate and seminal vesicles were rapidly dissected and weighed.
(§6) 3. Calculations and Statistical Analysis The percentage of inhibition (% inhib) is calculated by the following formula:
(§7) % Inhib=100−[W (compound)−W (control)/W (DHT)−W (control)]×100.
(§8) This percentage is reported as % of efficacy, relatively to the percentage of inhibition of flutaride calculated by the formula: % efficacy versus Flu=100×% inhib (compound)/% inhib (Flu).
(§9) W is the weight of the prostate or the seminal vesicle.

rat seminal vesicle = experiment: Systemic antiandrogenic activity in immature male rats (castrated, DHT implant), seminal vesicle weight; settings: po, 168 h, 0.5 mg/animal per os once daily 7 days, % efficacy relative to inhibition by flutamide, read-out: RAT (in vivo) (systemic) SV Inh % inh. (0.5 mg, per os)
Procedure: Column 6 represents the % of antiandrogenic efficacy on the rat seminal vesicle, relative to the percentage of inhibition by flutamide calculated by the formula:
as §1, §2, §7
W is the weight of the seminal vesicle.
as §3, §4, §5, §6, §8, §9

[1] = tested on: Shionogi mouse mammary carcinoma cells; experiment: In vitro androgenic/antiandrogenic activity, DHT-stimulated Shionogi cell number; assay type: cell-based; settings: for Shionogis (In Vitro) VS OH-FLU (ratio of Ki of hydroxyflutamide versus tested compound): OH-Flu = 1, DHT-stimulated cell number, higher values preferable
[2] = tested on: Hamster's ear sebaceous glands; experiment: Topical antiandrogenic activity, histomorphometry of the ear sebaceous glands in the hamster; assay type: in vivo, Male Golden Syrian hamster; settings: Mesocricetus auratus, 336 h, once daily, 14 days, sebaceous gland area, read-out: Antiandrogenic activity in Hamster's sebaceous glands Inh. Vs Cx (%); for inhibition in vivo at 0.001 mg: dose 1 μg applied topically on left ear of intact male hamster; for inhibition in vivo at 0.003 mg: dose 3 μg applied topically on left ear of intact male hamster; for inhibition in vivo at 0.01 mg: dose 10 μg applied topically on left ear of intact male hamster
From the text: Column 3 represents the dose of antiandrogenic compounds applied on the left ear of the intact male hamster.
Column 4 represents the relative inhibition in % of the area of the sebaceous gland of the left ear versus control hamster. Higher values approaching the effect of castration are preferable
The Antiandrogenic activity of antiandrogenic compounds has been measured using a Histomorphometry assay of the Ear Sebaceous Glands in the Hamster
1. Animals Male Golden Syrian, Hamster (SYR) of 110-120 g were obtained from Harlan Sprague Dawlay (Madison, USA) and housed up to 2 per cage in plastic cages in a temperature (22±3° C.) and light (12 h light/day, lights on at 7 h 15) in a controlled environment. The hamsters were fed with Certified Rodent Diet 5002 (pellet) and tap water ad libitum. The animals were acclimated for at least five days before the beginning of the study. Animals were randomly assigned to groups of eight hamsters. One group of hamsters was castrated under isoflurane-induced anesthesia on the day of dosing initiation (SD 1) and used as control group.
2. Treatments To evaluate the antiandrogenic activity, tested compounds were applied topically on the inner part of the left ear, once daily, for 14 days. Ten μL solution of acetone: ethanol: propylene Glycol (1:1:2; v:v:v) containing 0.1, 0.3 or 1.0 mg/mL of tested compound was carefully applied onto a region between the two cartilage ridges of the ventral surface of left pinna. For animals in the castrated and intact control groups ten-μL vehicle was applied onto the left ear. No solution will be applied on the right ear for any animals of the study.
3. Postmortem Observations and Measurements On Study Day 15, the hamsters were euthanized by cervical dislocation under isoflurane anesthesia. The left and right ears were collected attached together by the head skin, flat fixed on a paper and were immersed in 10% neutral buffered formalin. From the flat fixed ear and using paper puncture that makes a hole of 6 mm, the region where solution was applied was collected from each ear. Using a scalpel blade, the collected 6 mm round ear specimen was cut in the middle between the two cartilage ridges. The two equal parts of the ear round specimen were embedded in paraffin. After processing the tissue, the two parts were vertically embedded parallel to each other in a way that the flat 6 mm area was facing out. From each paraffin block, one section (5 μm thick) was cut and collected on a glass slide. Thus, each slide contained two elongated sections of 6 mm length. Slides were stained with hematoxylin and eosin.
4. Analysis of Sebaceous Gland Area Using the video camera and objective lens number X5 of the light microscope, the resulting field that appears on the screen has a length of 0.953 mm. From the glass slide, when we have examined the first 6 mm long section from the left to the right, the first and second fields were ignored and the third and fourth fields were captured for analysis by the image analyzer. Each field has the length of 0.953 mm. With the help of the screen mouse, the sebaceous glands within the whole field length (0.953mm) were marked. Also, an area with the length of the whole field and the height between stratum granulosum and the upper edge of the cartilage was drawn.
The image analyzer calculated the total area of the sebaceous glands (μm^2) in each examined field. We also obtained the area, which has the length of 0.953 mm and the height between stratum granulosum and the cartilage. In addition, the percentage of the area occupied by the glands was obtained. Thus, for each ear, two sections were cut and two fields from each section were analyzed. The total of the four readings was averaged and the mean standard of error calculated by the image analyzer. The results were expressed in μm^2 as the total surface of glands per field and also as percentage of the area occupied by the glands.

[3] = Mus musculus, read-out: Shionogis (In Vitro) IC50(nM), inhibition of DHT-stimulated cell number, 10-12 days

CC1(C)CC2C3CCc4c(C#N)cccc4C3CC[C@]2(C)[C@H]1O (stereo partly drawn) [EM-2557]
inhibition in vivo at 0.5 mg (rat prostate): 6% | inhibition in vivo at 0.5 mg (rat seminal vesicle): 0% | IC50 [1, 3]: 15 nM | IC50 ([1]; read-out: Shionogis (In Vitro) IC50, inhibition of DHT-stimulated cell number, 10-12 days): 18 nM | inhibition in vivo at 0.001 mg [2]: 52.4% | inhibition in vivo at 0.003 mg [2]: 42.8% | inhibition in vivo at 0.01 mg [2]: 66.6%

CC#C[C@@H]1CC2C3CCc4c(C#N)cccc4C3CC[C@]2(C)[C@H]1O (stereo partly drawn) [EM-2627]
inhibition in vivo at 0.5 mg (rat prostate): 0% | inhibition in vivo at 0.5 mg (rat seminal vesicle): 25% | IC50 [1, 3]: 7.8 nM | Shionogis (In Vitro) VS OH-FLU (ratio of Ki of hydroxyflutamide versus tested compound) [1]: 8.3 | inhibition in vivo at 0.001 mg [2]: 14.3% | inhibition in vivo at 0.003 mg [2]: 42.8% | inhibition in vivo at 0.01 mg [2]: 66.6%

CCC=C[C@]1(O)CCC2C3CCc4c(C#N)cccc4C3CC[C@@]21C (stereo partly drawn) [EM-3144]
inhibition in vivo at 0.5 mg (rat prostate): 8% | inhibition in vivo at 0.5 mg (rat seminal vesicle): 12% | IC50 [1, 3]: 4.4 nM | Shionogis (In Vitro) VS OH-FLU (ratio of Ki of hydroxyflutamide versus tested compound) [1]: 8.5 | inhibition in vivo at 0.001 mg [2]: 9.5% | inhibition in vivo at 0.003 mg [2]: 71.4% | inhibition in vivo at 0.01 mg [2]: 71.4%

CCCC#C[C@@H]1CC2C3CCc4c(C#N)cccc4C3CC[C@]2(C)[C@H]1O (stereo partly drawn) [EM-3165]
inhibition in vivo at 0.5 mg (rat prostate): 1% | inhibition in vivo at 0.5 mg (rat seminal vesicle): 14% | IC50 [1, 3]: 15.1 nM | Shionogis (In Vitro) VS OH-FLU (ratio of Ki of hydroxyflutamide versus tested compound) [1]: 7.2 | inhibition in vivo at 0.001 mg [2]: 19% | inhibition in vivo at 0.003 mg [2]: 14.3% | inhibition in vivo at 0.01 mg [2]: 23.8%

CC(C)C#C[C@]1(O)CCC2C3CCc4c(C#N)cccc4C3CC[C@@]21C (stereo partly drawn) [EM-3166]
inhibition in vivo at 0.5 mg (rat prostate): 0% | inhibition in vivo at 0.5 mg (rat seminal vesicle): 15% | IC50 [1, 3]: 21.8 nM | Shionogis (In Vitro) VS OH-FLU (ratio of Ki of hydroxyflutamide versus tested compound) [1]: 5.0 | inhibition in vivo at 0.001 mg [2]: 47.6% | inhibition in vivo at 0.003 mg [2]: 66.6% | inhibition in vivo at 0.01 mg [2]: 76.2%

CC(=O)O[C@H]1C(C)(C)CC2C3CCc4c(C#N)cccc4C3CC[C@@]21C (stereo partly drawn) [EM-3178]
inhibition in vivo at 0.5 mg (rat prostate): 0% | inhibition in vivo at 0.5 mg (rat seminal vesicle): 0% | IC50 [1, 3]: 17 nM | Shionogis (In Vitro) VS OH-FLU (ratio of Ki of hydroxyflutamide versus tested compound) [1]: 4.1 | inhibition in vivo at 0.001 mg [2]: 9.5% | inhibition in vivo at 0.003 mg [2]: 9.5% | inhibition in vivo at 0.01 mg [2]: 38.1%

CC[C@@]1(C)C[C@H]2[C@@H]3CCc4c(C#N)cccc4[C@H]3CC[C@]2(C)C1=O [EM-3180, 4-cyano-16α-methyl-16β-ethyl-1,3,5(10)-estratrien-17-one]
inhibition in vivo at 0.5 mg (rat prostate): 0% | inhibition in vivo at 0.5 mg (rat seminal vesicle): 0% | IC50 [1, 3]: 35 nM | Shionogis (In Vitro) VS OH-FLU (ratio of Ki of hydroxyflutamide versus tested compound) [1]: 2 | inhibition in vivo at 0.001 mg [2]: 57.1% | inhibition in vivo at 0.003 mg [2]: 90.5% | inhibition in vivo at 0.01 mg [2]: 95.2%

CC[C@]1(C)CC2C3CCc4c(C#N)cccc4C3CC[C@]2(C)C1=O (stereo partly drawn) [EM-3217]
Shionogis (In Vitro) VS OH-FLU (ratio of Ki of hydroxyflutamide versus tested compound) [1]: ˜1 | inhibition in vivo at 0.001 mg [2]: 4.8% | inhibition in vivo at 0.003 mg [2]: 0% | inhibition in vivo at 0.01 mg [2]: 42.8%

CC[C@@]1(C)C[C@H]2[C@@H]3CCc4c(C#N)cccc4[C@H]3CC[C@]2(C)[C@H]1O [EM-3221, 4cyano-16α-methyl-16β-ethyl-1,3,5(10)-estratrien-17β-ol]
inhibition in vivo at 0.5 mg (rat prostate): 0% | inhibition in vivo at 0.5 mg (rat seminal vesicle): 1% | IC50 [1, 3]: 3.2 nM | Shionogis (In Vitro) VS OH-FLU (ratio of Ki of hydroxyflutamide versus tested compound) [1]: 6.6 | inhibition in vivo at 0.001 mg [2]: 0% | inhibition in vivo at 0.003 mg [2]: 9.5% | inhibition in vivo at 0.01 mg [2]: 33.3%

C[C@@H]1CC2C3CCc4c(C#N)cccc4C3CC[C@]2(C)C1=O (stereo partly drawn) [EM-3223]
inhibition in vivo at 0.5 mg (rat prostate): 0% | inhibition in vivo at 0.5 mg (rat seminal vesicle): 18% | inhibition in vivo at 0.001 mg [2]: 25.9% | inhibition in vivo at 0.003 mg [2]: 37% | inhibition in vivo at 0.01 mg [2]: 59.2%

CC[C@]1(C)CC2C3CCc4c(C#N)cccc4C3CC[C@]2(C)[C@H]1O (stereo partly drawn) [EM-3226]
inhibition in vivo at 0.5 mg (rat prostate): 0% | inhibition in vivo at 0.5 mg (rat seminal vesicle): 0% | IC50 [1, 3]: 3.6 nM | Shionogis (In Vitro) VS OH-FLU (ratio of Ki of hydroxyflutamide versus tested compound) [1]: 5.9 | inhibition in vivo at 0.001 mg [2]: 7.4% | inhibition in vivo at 0.003 mg [2]: 29.6% | inhibition in vivo at 0.01 mg [2]: 33.3%

CCC1(CC)CC2C3CCc4c(C#N)cccc4C3CC[C@]2(C)C1=O (stereo partly drawn) [EM-3411]
inhibition in vivo at 0.5 mg (rat prostate): 0% | inhibition in vivo at 0.5 mg (rat seminal vesicle): 10% | Shionogis (In Vitro) VS OH-FLU (ratio of Ki of hydroxyflutamide versus tested compound) [1]: ˜1 | inhibition in vivo at 0.001 mg [2]: 3.7% | inhibition in vivo at 0.003 mg [2]: 14.8% | inhibition in vivo at 0.01 mg [2]: 62.9%
